# According to patent publication US8592451B2, “Reversible nondepolarizing neuromuscular blockade agents and methods for their use” (Cornell University, priority 2009, dated 2013):
# Columns and labels:
# [1] = L-cysteine adduction kinetics in vitro (HPLC); format: physicochemical; conditions: pH 7.4, 37° C.; for NMBA peak area / [NMBA] remaining / ln* = ln (([NMBA]t[L-cysteine]t=0)/([NMBA]t=0[L-cysteine]t)): CW 011 1000 μg/mL + 1.05 equiv. L-cysteine
# Protocol: In a second experiment, to evaluate degradation in the presence of L-cysteine, buffered solutions (pH 7.4) of gantacurium, CW 002 or CW 011 were freshly prepared at 37° C. to give experimental concentrations of 1000 μg/mL (CW 002 and CW 011) and 200 μg/mL (gantacurium), after addition to and mixing with a 5% Molar excess of L-cysteine at time=0.
# The concentration of neuromuscular blocking agent/parent compound remaining at specified time points after mixing was determined by high performance liquid chromatography. The concentration of blocking agent at each time point was determined from a separately prepared reaction mixture, due to the rapid rate of L-cysteine adduction. The reaction rate constant for the second order reaction of each neuromuscular blockade agent (NMBA) with L-cysteine was derived by plotting the natural log of ([NMBA]t[L-cysteine]t=0/[NMBA]t=0[L-cysteine]t) vs. time.
# Concentrations selected were 200, 100 and 50 μg/ml which are approximately proportional to the relative potencies (ED 95) of gantacurium, CW 002 and CW 011 respectively. A degradation (adduction) pathway in the presence of L-cysteine for each of the three compounds was proposed.
# The reaction of L-cysteine with CW 002, CW 011 or gantacurium is first order in the case of both the neuromuscular blockade agent (NMBA) and L-cysteine, represented by the rate equation (1). d[Adduct]/dt=−d[NMBA]/dt=ka[NMBA][L-cysteine] (1)
# Calculation of the L-cysteine adduction half time requires experimental derivation of the reaction rate constant, ka, for each compound. The initial concentrations of NMBA and L-cysteine are unequal in the experiments conducted for this study, thus integration of equation 1 gives equation 2, where [NMBA]0 is the NMBA concentration at time equals 0 and [NMBA]t is the NMBA concentration at a time point, t.
# [formula] A plot of the ln(([NMBA]t [L-cysteine]0)/([NMBA]0 [L-cysteine]t)) versus time (ln* vs. t) gives a line, with slope equal to ka([NMBA]0−[L-cysteine]0). An adduction reaction half time can be calculated by solving for ka to be used in equation 3.
# NMBA standard solutions were prepared by a method similar to that used to prepare hydrolysis standards. The standards were prepared at 1000 μg/mL for CW 002 and CW 011 and 200 μg/mL for gantacurium.
# Solutions used for determination of NMBA concentration at the reported times for CW 002 and CW 011 were prepared as follows: L-cysteine hydrochloride monohydrate was charged to a volumetric flask in de-ionized water. A 5 mL aliquot of the L-cysteine solution (1.05 equiv. L-cysteine with respect to NMBA) was transferred by volumetric pipette to a flask held at 37.0±0.3° C. CW 002 or CW 011 was then charged to a separate 25 mL volumetric flask and diluted to volume with pH 7.4 phosphate buffer at 37.0° C. The NMBA solution was then immediately transferred to the flask containing L-cysteine to give an initial NMBA concentration of 1000 μg/mL. Solutions used for determination of gantacurium concentration versus time were prepared in a similar manner to give an initial concentration of 200 μg/mL. T=0 was defined as the time of addition of NMBA solution to L-cysteine solution. The times listed in the results table show the point of HPLC sample injection following mixing of L-cysteine and NMBA at time=0 (Table 1, below).
# Rate constants were calculated using equation (3) and the slope of the trend line derived from each data set. The strong linear correlation of the data within each set supports the use of second order kinetics for analysis of the cysteine adduction reactions.
# Reaction half times were calculated using equation 4 and the experimentally determined rate constants. The initial NMBA concentrations were chosen to reflect the relative potency observed in vivo.
# [2] = test system: twitch of the extensor digitorum; assay: Reversal of neuromuscular blockade by L-cysteine or neostigmine in anesthetized rhesus monkeys; format: in vivo, rhesus monkeys (Macaca mulatta)
# Protocol: A control dose of 0.15 mg/kg CW 002 was allowed to recover spontaneously to TOF 110-120%. A second dose was given 60 minutes later, followed one minute afterwards by either neostigmine (0.05 mg/kg+atropine 0.05 mg/kg) or L-cysteine (10, 20, 30 or 50 mg/kg). Total duration and 5-95% recovery intervals were compared during spontaneous recovery vs. antagonism by L-cysteine or reversal by neostigmine.
# This series of paired comparisons was designed to generate dose-response data comparing spontaneous recovery of high doses of CW 011 (from 4 to 64× ED95) versus immediate antagonism at +1 min by an optimal dose of L-cysteine (50 mg/kg), previously determined during studies of immediate antagonism of CW 002. This experiment was done to explore the limits of chemical antagonism by L-cysteine of these olefinic diester neuromuscular blocking drugs, using CW 011 as a typical example with an intermediate duration of action. Five groups of animals first received a control dose of CW 011 at 4, 8, 16, 32 or 64× ED 95 (0.1 to 1.6 mg/kg). Sixty minutes after spontaneous recovery of the control dose to TOF 110-120%, the same dose was repeated, followed 1 min later by L-cysteine (50 mg/kg). Total duration of action and 5-95% recovery interval were compared during spontaneous recovery and following antagonism by L-cysteine
# The reversal of neuromuscular blockade by cysteine (5-50 mg/kg i.v.) was studied. Reversal was tested as follows: full paralysis was induced by injection of a dose of approximately 2-6× ED 95 of the compound in question. After spontaneous recovery of this dose, a second identical dose was given 15-30 min later. Cysteine was then given at +1 min after injection of the neuromuscular blocking drug at a point where no twitch was apparent (“immediate reversal”) or at the beginning of recovery from neuromuscular blockade at two percent twitch height (“classical reversal”). Comparisons were made among compounds with respect to rapidity and ease of cysteine reversal, by comparing 5-95% recovery times, and total durations of action (injection to 95% twitch recovery). Spontaneous recovery was compared with cysteine-accelerated recovery. […]
structure (smiles),measurement,setting,value
COc1ccc(C[C@@H]2c3cc(OC)c(OC)cc3CC[N@@+]2(C)CCCOC(=O)/C=C\C(=O)OCCC[N@+]2(C)CCc3cc(OC)c(OC)cc3[C@H]2Cc2cc(OC)c(OC)c(OC)c2)cc1OC [CW 011],NMBA peak area,"[1]; Trial 1, 123 Sec",2587.0 mAU's
same,[NMBA] remaining,"[1]; Trial 1, 123 Sec",228 µM
same,ln* = ln (([NMBA]t[L-cysteine]t=0)/([NMBA]t=0[L-cysteine]t)),"[1]; Trial 1, 123 Sec",−0.248
same,NMBA peak area,"[1]; Trial 2, 132 Sec",2500.5 mAU's
same,[NMBA] remaining,"[1]; Trial 2, 132 Sec",221 µM
same,ln* = ln (([NMBA]t[L-cysteine]t=0)/([NMBA]t=0[L-cysteine]t)),"[1]; Trial 2, 132 Sec",−0.256
same,NMBA peak area,"[1]; Trial 3, 143 Sec",2293.0 mAU's
same,[NMBA] remaining,"[1]; Trial 3, 143 Sec",202 µM
same,ln* = ln (([NMBA]t[L-cysteine]t=0)/([NMBA]t=0[L-cysteine]t)),"[1]; Trial 3, 143 Sec",−0.284
same,NMBA peak area,"[1]; Trial 4, 182 Sec",1765.4 mAU's
same,[NMBA] remaining,"[1]; Trial 4, 182 Sec",155 µM
same,ln* = ln (([NMBA]t[L-cysteine]t=0)/([NMBA]t=0[L-cysteine]t)),"[1]; Trial 4, 182 Sec",−0.378
same,Plot Slope (ln* vs. time),"[1]; L-cysteine adduction, data of Table 1",−0.0023
same,"ka, second order rate constant of L-cysteine adduction",[1],24.7 M⁻¹ s⁻¹
same,half-life at 50 μg/ml,"[1]; pH 7.4 phosphate buffer with L-cysteine, calculated at [NMBA]0 0.0000493 M (50 μg/ml), read-out: L-cysteine adduction reaction half time t1/2",13.7 min
same,time to reversal of blockade with cysteine (FIG. 2B),"[2]; CW 011, all cysteine concentrations tested (10 mg/kg to 50 mg/kg as worded elsewhere in the source)",less than 6 minutes
same,time from cysteine administration to beginning of reversal (FIG. 2B),"[2]; CW 011, higher cysteine doses",2 to 3 min
same,time to spontaneous reversal of blockade (FIG. 2),"[2]; CW 011, no reversal agent",more than 12 minutes
same,reversibility of neuromuscular blockade by thiol compounds,[2]; cysteine (L or D) or glutathione,reversible
same,effect of neostigmine given immediately after the blocking drug,[2]; immediate reversal,ineffective
same,spontaneous reversal rate (FIG. 2A),"[2]; increasing doses of CW 011 (4 to 64× ED95), no reversal agent",decreases with increasing CW 011 dose
same,classical antagonism of neuromuscular blockade by neostigmine,"[2]; neostigmine given at beginning of spontaneous recovery, e.g. at 2% twitch height",showed antagonism
